Molecules are shown by their SMILES. pEC50: −log10 of the molar value.

The target in this assay is T1, human Ox2R (Homo sapiens, UniProt O43614).
T1 construct: The gene encoding hOx2R was subcloned into the expression plasmid pcDNA5/FRT/TO; expressed in transfected cells; host or cells: CHO Flp-In cells (pcDNA5/FRT/TO with pOG44 Flp recombinase vector, hygromycin B selection)
T1 sequence (O43614 1-444): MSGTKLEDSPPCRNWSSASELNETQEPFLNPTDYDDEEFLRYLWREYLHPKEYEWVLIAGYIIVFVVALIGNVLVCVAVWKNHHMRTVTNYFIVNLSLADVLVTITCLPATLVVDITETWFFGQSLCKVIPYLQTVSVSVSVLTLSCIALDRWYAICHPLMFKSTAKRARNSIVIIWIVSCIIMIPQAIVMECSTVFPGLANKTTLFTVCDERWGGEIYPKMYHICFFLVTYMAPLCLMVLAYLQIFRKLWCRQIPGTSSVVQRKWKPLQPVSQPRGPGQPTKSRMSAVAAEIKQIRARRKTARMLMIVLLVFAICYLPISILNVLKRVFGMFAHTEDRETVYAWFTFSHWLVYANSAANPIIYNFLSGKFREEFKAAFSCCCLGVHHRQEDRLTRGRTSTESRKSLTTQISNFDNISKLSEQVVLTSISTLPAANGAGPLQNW
The assay is described as follows: Measurement of OX2R agonist activity (cell-based calcium release assay). The settings on record: hOx2R-CHO Flp-In cells, n≥2 tests; for pEC50: intracellular calcium, read-out: EC50; for Emax / Emax (%): normalized to assay buffer (0%) and 10 μM Danavorexton (100%); for Emax: read-out: Emax (%). From the text:
Measurement of OX2R Agonist Activity
The Ox2R has a broad signaling profile and couple to a range of different Gα-proteins. The cell-based calcium release assay is primarily assessing signaling through the Gαq signaling pathway, which promotes calcium mobilization via inositol triphosphate production upon activation of Ox2R.
A CHO Flp-In cell-line stably expressing the human Ox2R (hOx2R-CHO Flp-In) was established as follows: The gene encoding hOx2R was subcloned into the expression plasmid pcDNA5/FRT/TO and then transfected into CHO Flp-In cells together with the Flp recombinase vector, pOG44. Cells were cultured in growth medium: Ham's F12 (Gibco), 10% fetal bovine serum (Gibco) and 100 U/mL penicillin-streptomycin (Gibco) supplemented with hygromycin B (Thermo Fisher Scientific) as selection marker at 37° C. in the presence of 5% CO2.
To prepare the hOx2R-CHO FlpIn cells for calcium release assay, the cells were suspended in growth medium and seeded in black, clear-bottomed 384-well plates (Corning) at 10,000 cells/well. The plated cells were grown overnight at 37° C. and 5% CO2. The following day, the media was removed, and the cells were incubated with assay buffer (HBSS with 20 mM HEPES, pH 7.4) containing 2.5 mM probenecid (Thermo Fisher Scientific), 10 mM CaCl2, 0.1% pluronic F68 (Gibco) and 1× calcium-4 dye (Molecular Devices) for 1 h at 37° C. and 5% CO2. After incubation, cells were allowed to equilibrate at room temperature for 15 minutes and then loaded into FDSS7000Ex system (Hamamatsu Photonics) together with a plate containing test compounds serially diluted in assay buffer. Cells were stimulated with test compounds (online injection) and the agonist activity was determined as an increase in intracellular calcium concentration measured from the ratio of fluorescence emission at 542 nm by excitation at 480 nm. The agonist response for each applied concentration was assessed as the ratio: maximum fluorescence/average pre-stimulated fluorescence and was normalized to responses from assay buffer alone (0% response) and 10 μM Danavorexton (100% response). EC50 and Emax values were calculated from concentration-response curves by using Genedata Screener software.

The pEC50 is −log10 of the EC50, conventionally taken in molar units. Usually Emax stands for the maximal effect, on the per cent scale that the assay sets. With `O=S(=O)(N[C@H]1CC[C@@]2(Cc3ccc(F)c(c3)-c3cccc(F)c3OCc3coc2n3)C1)C1CC1` [Example 33, N-[(1′S,14R)-6,19-difluorospiro[8,12-dioxa-21-azatetracyclo[14.3.1.110,13.02,7]henicosa-1(19),2,4,6,10,13(21),16(20),17-octaene-14,3′-cyclopentane]-1′-yl]cyclopropanesulfonamide], the negative-log EC50 (pEC50) is 10.00 and the Emax came to 97%.
The corresponding values for `O=S(=O)(N[C@H]1CC[C@@]2(Cc3ccc(F)c(c3)-c3ccc(F)c(F)c3OCc3coc2n3)C1)C1CC1` [Example 34, N-[(1′S,14R)-5,6,19-trifluorospiro[8,12-dioxa-21-azatetracyclo[14.3.1.110,13.02,7]henicosa-1(19),2,4,6,10,13(21),16(20),17-octaene-14,3′-cyclopentane]-1′-yl]cyclopropanesulfonamide] are 9.10 and 98%.
The corresponding values for `CCS(=O)(=O)N[C@H]1CC[C@@]2(Cc3ccc(F)c(c3)-c3ccc(F)c(F)c3OCc3coc2n3)C1` [Example 35, N-[(1′S,14R)-5,6,19-trifluorospiro[8,12-dioxa-21-azatetracyclo[14.3.1.110,13.02,7]henicosa-1(19),2,4,6,10,13(21),16(20),17-octaene-14,3′-cyclopentane]-1′-yl]ethanesulfonamide] are 8.85 and 100%.
On the same counts, the results for `Cc1cccc2c1OCc1coc(n1)[C@]1(CC[C@H](NS(C)(=O)=O)C1)Cc1ccc(F)c-2c1` [Example 37, N-[(1′S,14R)-19-fluoro-6-methyl-spiro[8,12-dioxa-21-azatetracyclo[14.3.1.110,13.02,7]henicosa-1(19),2,4,6,10,13(21),16(20),17-octaene-14,3′-cyclopentane]-1′-yl]methanesulfonamide] are 8.96 and 96%.
In the case of `CS(=O)(=O)N[C@H]1CC[C@@]2(Cc3cccc(c3)-c3ccccc3OCc3coc2n3)C1` [Example 38, N-[(1′S,14R)-spiro[8,12-dioxa-21-azatetracyclo[14.3.1.110,13.02,7]henicosa-1(20),2,4,6,10,13(21),16,18-octaene-14,3′-cyclopentane]-1′-yl]methanesulfonamide], the pEC50 was 8.37 and the Emax worked out at 99%.
The corresponding values for `CS(=O)(=O)N[C@H]1CC[C@@]2(COCCc3cccc(c3)OCc3coc2n3)C1` [Example 40, N-[(1′S,8S)-spiro[2,6,10-trioxa-18-azatricyclo[11.3.1.14,7]octadeca-1(17),4,7(18),13,15-pentaene-8,3′-cyclopentane]-1′-yl]methanesulfonamide] are 5.77 and 94%.
On the same counts, the results for `CS(=O)(=O)N[C@H]1CC[C@@]2(CO[C@H]3CC[C@H](CC3)c3cccc(c3)OCc3coc2n3)C1` [Example 41, N-[(1s,1′S,13S,16s)-spiro[7,11,15-trioxa-21-azatetracyclo[14.2.2.12,6.19,12]docosa-2,4,6(22),9,12(21)-pentaene-13,3′-cyclopentane]-1′-yl]methanesulfonamide] are 9.72 and 98%.
The corresponding values for `CS(=O)(=O)N[C@H]1CC[C@@]2(CO[C@H]3CC[C@H](CC3)c3cccnc3OCc3coc2n3)C1` [Example 43, N-[(1s,1′S,14R,17s)-spiro[8,12,16-trioxa-6,22-diazatetracyclo[15.2.2.110,13.02,7]docosa-2,4,6,10,13(22)-pentaene-14,3′-cyclopentane]-1′-yl]methanesulfonamide] are 9.16 and 100%.
In the case of `CS(=O)(=O)N[C@H]1CC[C@@]2(Cc3cccc(c3)-c3cccc(F)c3OCc3coc2n3)C1` [Example 44, N-[(1′S,14R)-6-fluorospiro[8,12-dioxa-21-azatetracyclo[14.3.1.110,13.02,7]henicosa-1(19),2,4,6,10,13(21),16(20),17-octaene-14,3′-cyclopentane]-1′-yl]methanesulfonamide], the pEC50 is 9.27 and the Emax was determined as 99%.
Turning to `CS(=O)(=O)N[C@H]1CC[C@@]2(Cc3ccc(F)c(c3)-c3ccccc3OCc3coc2n3)C1` [Example 45, N-[(1′S,14R)-19-fluorospiro[8,12-dioxa-21-azatetracyclo[14.3.1.110,13.02,7]henicosa-1(19),2,4,6,10,13(21),16(20),17-octaene-14,3′-cyclopentane]-1′-yl]methanesulfonamide], the pEC50 is 9.47 and the Emax stood at 97%.
On the same counts, the results for `CS(=O)(=O)N[C@H]1CC[C@@]2(Cc3ccc(F)c(c3)-c3cccc(F)c3OCc3csc2n3)C1` [Example 46, N-[(1′S,14R)-6,19-difluorospiro[8-oxa-12-thia-21-azatetracyclo[14.3.1.110,13.02,7]henicosa-1(19),2,4,6,10,13(21),16(20),17-octaene-14,3′-cyclopentane]-1′-yl]methanesulfonamide] are 9.85 and 99%.
For `CS(=O)(=O)N[C@H]1CC[C@@]2(Cc3cccc(c3)-c3cccc(n3)OCc3coc2n3)C1` [Example 47, N-[(1′S,13R)-spiro[7,11-dioxa-20,21-diazatetracyclo[13.3.1.12,6.19,12]henicosa-1(19),2,4,6(21),9,12(20),15,17-octaene-13,3′-cyclopentane]-1′-yl]methanesulfonamide], the pEC50 was 8.07 and the Emax stood at 96%.
As to `CS(=O)(=O)N[C@H]1CC[C@@]2(Cc3cccc(c3)-c3cccc(c3)OCc3coc2n3)C1` [Example 48, N-[(1′S,13R)-spiro[7,11-dioxa-20-azatetracyclo[13.3.1.12,6.19,12]henicosa-1(19),2,4,6(21),9,12(20),15,17-octaene-13,3′-cyclopentane]-1′-yl]methanesulfonamide], the pEC50 was 7.82 and the Emax was found to be 95%.
On the same counts, the results for `CS(=O)(=O)N[C@H]1CC[C@@]2(Cc3cc(ccn3)-c3ccccc3OCc3coc2n3)C1` [Example 49, N-[(1′S,14S)-spiro[8,12-dioxa-17,21-diazatetracyclo[14.3.1.110,13.02,7]henicosa-1(20),2,4,6,10,13(21),16,18-octaene-14,3′-cyclopentane]-1′-yl]methanesulfonamide] are 5.70 and 94%.
Turning to `C[C@H]1C[C@H](NS(C)(=O)=O)C[C@]12Cc1ccc(F)c(c1)-c1cccc(F)c1OCc1coc2n1` [Example 60, N-[(1′S,4′S,14R)-6,19-difluoro-4′-methyl-spiro[8,12-dioxa-21-azatetracyclo[14.3.1.110,13.02,7]henicosa-1(19),2,4,6,10,13(21),16(20),17-octaene-14,3′-cyclopentane]-1′-yl]methanesulfonamide or N-[(1′R,4′R,14S)-6,19-difluoro-4′-methyl-spiro[8,12-dioxa-21-azatetracyclo[14.3.1.110,13.02,7]henicosa-1(19),2,4,6,10,13(21),16(20),17-octaene-14,3′-cyclopentane]-1′-yl]methanesulfonamide], the pEC50 was 9.48 and the “Emax (%)” value is 100%.
In the case of `C[C@H]1C[C@H](NS(C)(=O)=O)C[C@]12Cc1ccc(F)c(c1)-c1cccc(F)c1OCc1coc2n1` [Example 61, N-[(1′S,4′S,14R)-6,19-difluoro-4′-methyl-spiro[8,12-dioxa-21-azatetracyclo[14.3.1.110,13.02,7]henicosa-1(19),2,4,6,10,13(21),16(20),17-octaene-14,3′-cyclopentane]-1′-yl]methanesulfonamide or N-[(1′R,4′R,14S)-6,19-difluoro-4′-methyl-spiro[8,12-dioxa-21-azatetracyclo[14.3.1.110,13.02,7]henicosa-1(19),2,4,6,10,13(21),16(20),17-octaene-14,3′-cyclopentane]-1′-yl]methanesulfonamide], the negative-log EC50 (pEC50) is 6.85 and the “Emax (%)” value was found to be 96%.

Source of the values: US12590106B2, “Spiromacrocyclic orexin 2 receptor agonists” (H. Lundbeck A/S, priority 2023, dated 2026).
